Converted amounts (≈) assume the structure as drawn. Where a name gives a salt, the structure may show the parent alone. Read-outs that look alike come from different tables or passages of the source. Some results are limits rather than exact numbers.

A short description of series [1]: Aqueous solubility. The format is physicochemical. The note with it: water. Here is the method: (§1) Table 1 represents the aqueous solubility and the anti-tumor activity of these compounds. The anti-tumor testing was carried out in CDF-1 mice in which were implanted L-1210 lymphoid leukemia, and the drug is delivered intraperitoneally on a schedule of QD4X2.
Series [2] relates to L-1210 lymphoid leukemia. As to the kind of experiment: Anti-tumor activity in CDF-1 mice implanted with L-1210 lymphoid leukemia (IP/IP, QD4 × 2). The format is in vivo. The note with it: Mus musculus, read-out: T/C; for response vs control in vivo at 50 mg/kg: 50 mg/Kg per injection; for response vs control in vivo at 30 mg/kg: 30 mg/Kg per injection. Here is the method:
as §1

The nature of series [3]: In vitro human plasma hydrolysis of prodrugs. The format is in vitro ADME. The settings on record: initial drug concentration 50 mcg/ml, read-out: t1/2 of hydrolysis in human plasma. The text has this:
(§2) The data are shown to reflect the relative hydrolysis rates as measured by t1/2, the time required for the concentration of the drug to become one half of the starting concentration. Freshly obtained samples of human and murine plasma were used in these studies.
(§3) ^(a) Initial drug concentration (50 mcg/ml)

Series [4] can be described thus: In vitro murine plasma hydrolysis of prodrugs. The format is in vitro ADME. The settings on record: mouse, initial drug concentration 50 mcg/ml, read-out: t1/2 of hydrolysis in murine plasma.
Text: as §2, §3

For series [5] the following is noted: subsequent biological evaluation in earlier reports; cited from earlier work.
The test system of series [6] is leukemia L-1210. The settings on record: mice; cited from earlier work.
For series [7] the following is noted: preclinical, beagle and rhesus monkey; cited from earlier work.
The conditions of series [8]: cited from earlier work.
In series [9] the test system is Walker 256 tumor. The note with it: rats; cited from earlier work.
For series [10] the following is noted: animal models; Wani et al. 1980; cited from earlier work.
The conditions of series [11]: early clinical studies; cited from earlier work.

`CC[C@@]1(OC(=O)CN)C(=O)OCc2c1cc1n(c2=O)Cc2cc3ccccc3nc2-1` [Formula 7, Camptothecin-20-O-glycinate.HCl]: the solubility (in general, the concentration that dissolves in the medium under given conditions) in series [1] (read-out: Aqueous solubility) came to 6000 µg/mL. In addition, the response vs control in vivo at 15 mg/kg in series [2] (L1210, 15 mg/Kg per injection, IP/IP, QD4 × 2) was 162%. The half-life stood at 15 min in series [3] and 36 min in series [4].

With `CC[C@@]1(O)C(=O)OCc2c1cc1n(c2=O)Cc2cc3ccccc3nc2-1` [Camptothecin], the solubility in series [1] was 50 µg/mL (≈ 144 µM). The Toxicity result in [5] was “highly toxic”. In addition, the response vs control in vivo at 8 mg/kg in series [2] (L1210, ip) amounted to 197%. The “Carcinostatic activity, leukemia L-1210” value in [6] is “inhibitor activity”. In addition, in series [7], the “Eosinophilia and bone marrow depression” value was “moderate eosinophilia and bone marrow depression”; the Hepatotoxicity entry is “Minimal hepatotoxicity”; the “Major dose-limiting toxic effect” value was “Hemorrhagic enterocolitis”. Moreover, the “Solubility in aqueous vehicles” value in series [8] (aqueous vehicles suitable for parenteral administration) was “practically insoluble”. The “Carcinostatic activity, Walker 256 tumor” value in [9] is reported as “inhibitor activity”.

Turning to `CC[C@@]1(OC(=O)C(N)CCCCCN)C(=O)OCc2c1cc1n(c2=O)Cc2cc3ccccc3nc2-1` (some centres unmarked) [Formula 12], the solubility in [1] (read-out: Aqueous solubility) came to 15000 µg/mL. Further, the response vs control in vivo at 50 mg/kg in series [2] (L1210, IP/IP, QD4 × 2) was found to be 253%. In addition, the half-life came to 20 min in series [3] and 48 min in [4].

Consider `CC[C@@]1(OC(=O)CNC)C(=O)OCc2c1cc1n(c2=O)Cc2cc3ccccc3nc2-1` [Formula 8], for which, in series [1] (read-out: Aqueous solubility), the solubility came to 4000 µg/mL. Besides, the response vs control in vivo at 30 mg/kg in series [2] (L1210, IP/IP, QD4 × 2) came to 191%. The half-life in series [3] amounted to 13 min; in [4], 28 min.

With `CC[C@@]1(OC(=O)CCC(=O)O)C(=O)OCc2c1cc1n(c2=O)Cc2cc3ccccc3nc2-1` [Formula 14, Camptothecin-20-O-hemisuccinate sodium salt], the solubility in series [1] (read-out: Aqueous solubility) was 13000 µg/mL. Moreover, the response vs control in vivo at 47 mg/kg in [2] (L1210, 47 mg/Kg per injection, IP/IP, QD4 × 2) was found to be 200%. For the same compound, the half-life in series [3] turned out to be 16 min; in series [4], 40 min.

Consider `CCNCC(=O)O[C@]1(CC)C(=O)OCc2c1cc1n(c2=O)Cc2cc3ccccc3nc2-1` [Formula 9], for which the solubility in [1] (read-out: Aqueous solubility) was 8000 µg/mL. For the same compound, in [2] (L1210, IP/IP, QD4 × 2), the response vs control in vivo at 30 mg/kg is 170%. Besides, the values for the half-life in [3] and in series [4] were 18 min and 40 min, respectively.

For the compound `CC[C@@]1(OC(=O)C(N)CCC(=O)O)C(=O)OCc2c1cc1n(c2=O)Cc2cc3ccccc3nc2-1` (some centres unmarked) [Formula 13], the solubility in series [1] (read-out: Aqueous solubility) was found to be 6000 µg/mL. Also, the response vs control in vivo at 50 mg/kg in series [2] (L1210, IP/IP, QD4 × 2) is 154%. The half-life was 18 min in series [3] and 35 min in series [4].

`CCN(CC)CC(=O)O[C@]1(CC)C(=O)OCc2c1cc1n(c2=O)Cc2cc3ccccc3nc2-1` [Formula 10, Camptothecin-20-O-(N,N-diethyl)glycinate.HCl]: the solubility in [1] (read-out: Aqueous solubility) came to 5000 µg/mL. Further, the response vs control in vivo at 30 mg/kg in series [2] (L1210, IP/IP, QD4 × 2) is 256%. In series [3], the half-life was 45 min.

For `CC[C@@]1(OP(=O)(O)O)C(=O)OCc2c1cc1n(c2=O)Cc2cc3ccccc3nc2-1` [Formula 15, Camptothecin-20-phosphate sodium salt], in series [1] (read-out: Aqueous solubility), the solubility is 8000 µg/mL. Moreover, in series [2] (L1210, 44 mg/Kg per injection, IP/IP, QD4 × 2), the response vs control in vivo at 44 mg/kg amounted to 192%. Besides, the results for the half-life in [3] and in series [4] were 20 min and 27 min, respectively.

As for `CC[C@@](O)(C(=O)O)c1cc2n(c(=O)c1CO)Cc1cc3ccccc3nc1-2` [Sodium camptothecin], in series [10], the “Potency relative to parent camptothecin” value is 10-20%. For the same compound, in series [8] (in water), the Solubility in water was above 50000 µg/mL. In addition, in series [11], the Clinical outcome is “disappointing” and the Clinical toxicity entry is on record as “unexpected toxicity that precluded achievement of therapeutically useful doses”.
